# Assay results from ChEMBL document CHEMBL1201862, “PubChem BioAssay data set” (2004).
#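 These data come from cells grown in 96-well plates and exposed to compound for 48 hours at five concentrations. At the GI50, growth is halved.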 Calls of active or inactive are those of the source. No stated cut-off is given here; in the data, active = GI50 up to about 1.1 µM and inactive = higher.
# Experiments:
# Assay in all cases: NCI tumour cell line growth inhibition, 48 h
# SK-MEL-5 = test system: SK-MEL-5
# HCT-116 = test system: HCT-116
# SF-268 = test system: SF-268
# HT-29 = test system: HT-29
# 786-0 = test system: 786-0
# EKVX = test system: EKVX
# SW-620 = test system: SW-620
# UO-31 = test system: UO-31
# M14 = test system: M14
# SK-OV-3 = test system: SK-OV-3
# MOLT-4 = test system: MOLT-4
# HCT-15 = test system: HCT-15
# RPMI-8226 = test system: RPMI-8226
# SR = test system: SR
# CCRF-CEM = test system: CCRF-CEM
# OVCAR-4 = test system: OVCAR-4
# ACHN = test system: ACHN
# HOP-92 = test system: HOP-92
# HCC 2998 = test system: HCC 2998
# OVCAR-8 = test system: OVCAR-8
Compound,GI50 (SK-MEL-5),GI50 (HCT-116),GI50 (SF-268),GI50 (HT-29),GI50 (786-0),GI50 (EKVX),GI50 (SW-620),GI50 (UO-31),GI50 (M14),GI50 (SK-OV-3),GI50 (MOLT-4),GI50 (HCT-15) [µM],GI50 (RPMI-8226),GI50 (SR),GI50 (CCRF-CEM),GI50 (OVCAR-4),GI50 (ACHN),GI50 (HOP-92),GI50 (HCC 2998),GI50 (OVCAR-8)
COc1ccc2oc(=O)c(-c3csc(C)n3)cc2c1,> 100 µM (inactive),58.3 µM (inactive),21.6 µM (inactive),> 100 µM (inactive),54.2 µM (inactive),56.5 µM (inactive),> 100 µM (inactive),69.2 µM (inactive),75.2 µM (inactive),28.1 µM (inactive),> 100 µM (inactive),> 100,> 100 µM (inactive),> 100 µM (inactive),> 100 µM (inactive),85.3 µM (inactive),44.4 µM (inactive),19.5 µM (inactive),> 100 µM (inactive),–
CC(Cc1ccccc1)N(C)Cc1nc(C2CCC([N+](=O)[O-])O2)no1 (stereo not given),11.5 µM (inactive),7.29 µM (inactive),28.1 µM (inactive),2.77 µM (inactive),11.9 µM (inactive),28.4 µM (inactive),3.1 µM (inactive),7.29 µM (inactive),6 µM (inactive),24.5 µM (inactive),19.5 µM (inactive),2.17,14.8 µM (inactive),16.7 µM (inactive),12.2 µM (inactive),8.47 µM (inactive),–,21.3 µM (inactive),4.17 µM (inactive),12.7 µM (inactive)
CCOc1ccc2ccccc2c1NC1=NCCO1,44.9 µM (inactive),36.9 µM (inactive),> 100 µM (inactive),30.3 µM (inactive),> 100 µM (inactive),60.8 µM (inactive),46.1 µM (inactive),21 µM (inactive),37.2 µM (inactive),39.5 µM (inactive),27.5 µM (inactive),> 100,19.5 µM (inactive),31.5 µM (inactive),39.1 µM (inactive),26.8 µM (inactive),20.6 µM (inactive),15.3 µM (inactive),38.5 µM (inactive),74.6 µM (inactive)
O=C(C=C1SCCS1)/C=C\c1ccc(Cl)cc1,> 100 µM (inactive),> 100 µM (inactive),> 100 µM (inactive),41.4 µM (inactive),> 100 µM (inactive),> 100 µM (inactive),> 100 µM (inactive),> 100 µM (inactive),> 100 µM (inactive),> 100 µM (inactive),> 100 µM (inactive),–,31.5 µM (inactive),85.7 µM (inactive),51.3 µM (inactive),> 100 µM (inactive),–,> 100 µM (inactive),26.4 µM (inactive),> 100 µM (inactive)
Cn1c(=O)c2ccc(-c3ccc(Br)cc3)nc2n(C)c1=O,> 100 µM (inactive),68.9 µM (inactive),> 100 µM (inactive),> 100 µM (inactive),> 100 µM (inactive),42.9 µM (inactive),> 100 µM (inactive),> 100 µM (inactive),> 100 µM (inactive),> 100 µM (inactive),> 100 µM (inactive),> 100,> 100 µM (inactive),> 100 µM (inactive),> 100 µM (inactive),> 100 µM (inactive),–,> 100 µM (inactive),> 100 µM (inactive),> 100 µM (inactive)
c1ccc(-c2nc(-c3ccccc3)c(-c3ccccc3)[nH]2)cc1,> 100 µM (inactive),71.9 µM (inactive),55.2 µM (inactive),> 94.6 µM (inactive),54 µM (inactive),> 83.6 µM (inactive),> 100 µM (inactive),> 100 µM (inactive),> 100 µM (inactive),> 100 µM (inactive),> 35.8 µM (inactive),> 100,> 47.6 µM (inactive),17.5 µM (inactive),17 µM (inactive),85.9 µM (inactive),> 100 µM (inactive),> 100 µM (inactive),> 100 µM (inactive),> 66.1 µM (inactive)
